The values that follow come from US11904040B2, “Zinc-amino acid-lauryl sulfate complex with antimicrobial activity” (Colgate-Palmolive Company, priority 2018, dated 2024).

In one series the test system is S. mutans. Nature of the series: Metabolic inhibition of S. mutans (autotitrator base consumption after glucose). Format: cell-based. The following applies: for % Metabolic Reduction: S. mutans in 135 mM KCl, final zinc concentration 2.5 ppm (SLS equimolar to LS in Zn(Lys)2(LS)2), pH 7, 30 minutes, vs control containing only bacteria. As to the method: The chelation of zinc can modify its efficacy as an antibacterial agent. […] S. mutans is one of the prevalent bacteria present in the oral cavity. A concentrated suspension of S. mutans in 135 mM KCl was treated with a known concentration of zinc salt to obtain a final zinc concentration of 2.5 ppm. […] Using an autotitrator (Methrom Titrando 902) equipped with a 0.01M solution of KOH, the bacterial suspension was equilibrated to pH=7. After equilibrating, glucose was added to the solution. The autotitrator maintained the pH at 7 through the precise addition of KOH solution. The experiment was allowed to proceed for 30 minutes and the volume of base added was recorded at 10 second intervals. After 30 mins, a growth curve of base addition over time was obtained. The area under this curve was compared to the area under the curve for a control sample containing only bacteria and used to calculate a % reduction value. The control sample was analyzed from the same bacterial suspension as the test sample and the two samples were analyzed within 3 hours of each other. In order for data from a given suspension of S. mutans to be included, the control sample must consume at least 5 mL of base solution during the 30 minute time period.

The nature of series [1]: Potentiometric titration, stability constants of the Zn, Lysine, SLS system. Conditions: 25C, 50:50 glycerin:de-ionized water, 100 mM KNO3, 5 mM Zn.

For the compound `NCCCCC(N)C(=O)O.NCCCCC(N)C(=O)O.[Cl-].[Cl-].[Zn+2]` (stereo not shown) [ZLC, [Zn(C6H14N2O2)2Cl]^+Cl^−], the “% Metabolic Reduction” value with S. mutans is listed as 53.90 ± 2.36%.

As for zinc arginate [[Zn(Arg)2]^2+], the “% Metabolic Reduction” value in the series on S. mutans was 67.19 ± 0.32%.

Take `NCCCC[C@H](N)C(=O)O` [HLys]: the “Log(B) stability constant” value in series [1] amounted to 10.07.

For the compound `O=[N+]([O-])[O-].O=[N+]([O-])[O-].[Zn+2]` [Zn(NO3)2], the “% Metabolic Reduction” value in the series with S. mutans stood at 67.16 ± 2.49%.

Take `CCCCCCCCCCCCOS(=O)(=O)[O-].[Na+]` [Sodium lauryl sulfate, sodium lauryl sulfate]: the “% Metabolic Reduction” value with S. mutans amounted to 34.12 ± 1.56%.

As for “zinc-arginine-lauryl sulfate [Zn(Arg)2(LS)2]”, in the series on S. mutans, the “% Metabolic Reduction” value is on record as 72.53 ± 3.76%. In addition, the “antibacterial performance compared to corresponding zinc-amino acid complex” value in the series on S. mutans (S. mutans metabolic reduction, Table 10) is “directionally improved antibacterial performance compared to [Zn(Arg)2]^2+”.
